Values of other authors, collected in patent US20230065900A1, “COMPOSITIONS AND METHODS FOR MODULATING INFLAMMATION AND WOUND HEALING” (Alastin Skincare, Inc., priority 2020, published 2023).

Test system: hyaluronic acid level
Details: ex vivo human skin model

CCCCCCCC(=O)CCc1ccc(O)c(OC)c1 [hydroxymethoxyphenyl decanone]
stimulation of dermal hyaluronic acid level versus placebo: 259% | stimulation of epidermal hyaluronic acid level versus placebo: 198%
